Experimental findings from patent US20190315823A1, “SMALL CATIONIC ANTI-BIOFILM AND IDR PEPTIDES” (priority 2013, published 2019) are described below.

Ends that are not written are not given here.

In experiment [1] the test system is LPS-stimulated human peripheral blood mononuclear cells (IL1-β). Format: cell-based. As to conditions: Table 12, cells stimulated with 10 ng/ml LPS; for IL1β Production: LPS alone 1313 (HH2 derivatives), 1927 (1018 derivatives), 2455 (1002 and hybrid peptides) pg/ml. As for the experimental part:
LPS from P. aeruginosa strain H103 was highly purified free of proteins and lipids using the Darveau-Hancock method. Briefly, P. aeruginosa was grown overnight in LB broth at 37° C. Cells were collected and washed and the isolated LPS pellets were extracted with a 2:1 chloroform:methanol solution to remove contaminating lipids. Purified LPS samples were quantitated using an assay for the specific sugar 2-keto-3-deoxyoctosonic acid (KDO assay) and then resuspended in endotoxin-free water (Sigma-Aldrich).

Experiment [2] deals with human peripheral blood mononuclear cells (MCP-1). In words: SPOT-synthesized derivative screen: production of chemokine MCP-1. Format: cell-based. As to conditions: Table 12, No LPS, human PBMC, peptide at ~18-24 μM; for MCP1: background subtracted 139 (HH2 derivatives), 170 (1018 derivatives), 242 (1002 and hybrid peptides) pg/ml. As for the experimental part:
Venous blood (20 ml) from healthy volunteers was collected in Vacutainer® collection tubes containing sodium heparin as an anticoagulant (Becton Dickinson, Mississauga, ON) in accordance with UBC ethical approval and guidelines. Blood was diluted 1:1 with complete RPMI 1640 medium and separated by centrifugation over a Ficoll-Paque® Plus (Amersham Biosciences, Piscataway, N.J., USA) density gradient. White blood cells were isolated from the buffy coat, washed twice in RPMI 1640 complete medium, and the number of peripheral blood mononuclear cells (PBMC) was determined by Trypan blue exclusion. PBMC (5×10^5) were seeded into 12-well tissue culture dishes (Falcon; Becton Dickinson) at 0.75 to 1×10^6 cells/ml at 37° C. in 5% CO2. The above conditions were chosen to mimic conditions for circulating blood monocytes entering tissues at the site of infection via extravasation.
Following incubation of the cells under various treatment regimens, the tissue culture supernatants were centrifuged at 1000×g for 5 min, then at 10,000×g for 2 min to obtain cell-free samples. Supernatants were aliquoted and then stored at −20° C. prior to assay for various chemokines by capture ELISA (eBioscience and BioSource International Inc., CA, USA respectively)

Experiment [3] has as its system methicillin resistant Staphylococcus aureus (MRSA) biofilm. As to conditions: approximate peptide concentration […] (around 3 μg/ml); compared to untreated samples. As for the experimental part: Methods of assessment of anti-biofilm activity—Biofilm formation was initially analyzed using a static abiotic solid surface assay as described elsewhere (de la Fuente-Nunez et al., 2012). Dilutions (1/100) of overnight cultures were incubated in BM2 biofilm-adjusted medium [62 mM potassium phosphate buffer (pH 7), 7 mM (NH4)2SO4, 2 mM MgSO4, 10 μM FeSO4, 0.4% (wt/vol) glucose, 0.5% (wt/vol) Casamino Acids], or a nutrient medium such as Luria Broth, in polypropylene microtiter plates (Falcon, United States) in the absence (control) or presence of peptide. Peptide was added at time zero (prior to adding the diluted, overnight cultures) in varying concentrations, and the decrease in biofilm formation was recorded at 22-46 h for most bacteria. Planktonic cells were removed, biofilm cells adhering to the side of the tubes were stained with crystal violet, and absorbance at 595 nm was measured using a microtiter plate reader (Bio-Tek Instruments Inc., United States). Some peptides were screened against two Gram negative organisms, P. aeruginosa and K. pneumoniae using a Bioflux apparatus (AutoMate Scientific, Berkeley, Calif.; http://www.autom8.com/bioflux_biofilm.html), which allows for the high-throughput, real-time analysis of biofilms.

For the substance “1002-W9: single substituted 1002 peptide (VQRWLIVWWIRK-NH2) [Peptide 1002-W9]”, in experiment [1], the “Fold change in IL1β relative to no peptide LPS stimulated cells” value was determined as 0.05 and the “IL1β Production” value was 127 pg/mL. Besides, in experiment [2], the “Fold increase in MCP1 cf. untreated cells” value (shortened to “Fold increase”) came to 1.0 and the “MCP1” value turned out to be 12.0 pg/mL. Besides, in experiment [3], the “% Biofilm inhibition” value is 73%.
Taken in the same sequence, the figures for “HH2-K1: single substituted HH2 peptide (KQLRIRVAVIRA-NH2)” were 1.08, 1423 pg/mL, 6.7, 968 pg/mL and 55%.
Regarding “1018-L2: single substituted 1018 peptide (VLLIVAVRIWRR-NH2) [Peptide 1018-L2]”, in experiment [1], the “Fold change in IL1β relative to no peptide LPS stimulated cells” value was found to be 0.32 and the “IL1β Production” value worked out at 426 pg/mL. In experiment [2], the “Fold increase” value amounted to 0.8 and the “MCP1” value was -35 pg/mL. For the same substance, the “% Biofilm inhibition” value in experiment [3] is listed as 61%.
As to “1002-V10: single substituted 1002 peptide (VQRWLIVWRVRK-NH2) [Peptide 1002-V10]”, in experiment [1], the “Fold change in IL1β relative to no peptide LPS stimulated cells” value is on record as 0.05 and the “IL1β Production” value was 127 pg/mL. For the same substance, in experiment [2], the “Fold increase” value was determined as 2.3 and the “MCP1” value is 308.0 pg/mL. Further, the “% Biofilm inhibition” value in experiment [3] worked out at 63%.
Take “1002-Q7: single substituted 1002 peptide (VQRWLIQWRIRK-NH2) [Peptide 1002-Q7]”: in experiment [1], the “Fold change in IL1β relative to no peptide LPS stimulated cells” value is recorded as 0.06 and the “IL1β Production” value turned out to be 138 pg/mL. Moreover, in experiment [2], the “Fold increase” value is listed as 0.9 and the “MCP1” value was -36.2 pg/mL. For the same substance, the “% Biofilm inhibition” value in experiment [3] worked out at 45%.
On to “HH2-I3: single substituted HH2 peptide (VQIRIRVAVIRA-NH2)”, for which, in experiment [1], the “Fold change in IL1β relative to no peptide LPS stimulated cells” value came to 1.02 and the “IL1β Production” value was found to be 1336 pg/mL. Also, in experiment [2], the “Fold increase” value is given as 6.8 and the “MCP1” value amounted to 982 pg/mL. Moreover, in experiment [3], the “% Biofilm inhibition” value stood at 62%.
“1018-G12: single substituted 1018 peptide (VRLIVAVRIWRG-NH2) [Peptide 1018-G12]”: in experiment [1], the “Fold change in IL1β relative to no peptide LPS stimulated cells” value is 0.37 and the “IL1β Production” value turned out to be 490 pg/mL. Besides, in experiment [2], the “Fold increase” value was found to be 1.0 and the “MCP1” value is 7 pg/mL. Moreover, in experiment [3], the “% Biofilm inhibition” value is on record as 53%.
“HH2-Q6: single substituted HH2 peptide (VQLRIQVAVIRA-NH2)”: in experiment [1], the “Fold change in IL1β relative to no peptide LPS stimulated cells” value worked out at 0.83 and the “IL1β Production” value is 1088 pg/mL. In addition, in experiment [2], the “Fold increase” value turned out to be 191 and the “MCP1” value was determined as 32306 pg/mL. In addition, the “% Biofilm inhibition” value in experiment [3] is 35%.
As to “1002-W10: single substituted 1002 peptide (VQRWLIVWRWRK-NH2) [Peptide 1002-W10]”, in experiment [1], the “Fold change in IL1β relative to no peptide LPS stimulated cells” value is reported as 0.05 and the “IL1β Production” value is 127 pg/mL. Further, in experiment [2], the “Fold increase” value came to 8.8 and the “MCP1” value is 1889.1 pg/mL. In addition, the “% Biofilm inhibition” value in experiment [3] is 71%.
For the substance “1018-A8: single substituted 1018 peptide (VRLIVAVAIWRR-NH2) [Peptide 1018-A8]”, in experiment [1], the “Fold change in IL1β relative to no peptide LPS stimulated cells” value came to 0.10 and the “IL1β Production” value was 127 pg/mL. In experiment [2], the “Fold increase” value is 3.7 and the “MCP1” value turned out to be 460 pg/mL. Further, the “% Biofilm inhibition” value in experiment [3] came to 60%.
With “HH2-L7: single substituted HH2 peptide (VQLRIRLAVIRA-NH2)”, in experiment [1], the “Fold change in IL1β relative to no peptide LPS stimulated cells” value amounted to 1.05 and the “IL1β Production” value came to 1378 pg/mL. For the same substance, in experiment [2], the “Fold increase” value came out at 19 and the “MCP1” value came out at 3138 pg/mL. Further, the “% Biofilm inhibition” value in experiment [3] was 68%.
